Calls of active or inactive are those of the source. No cut-off for these calls is given here.

This note sets out measurements from ChEMBL document CHEMBL1121535, “Stereochemical requirements for cannabinoid activity” (J Med Chem, 1980).

What all share (assay type): functional, organism-based
Holding throughout (details): Cercopithecidae

Experiment [1] concerns Monkey. The experiment in a line: The compound was evaluated for the rating of psychotropic effects in rhesus monkey at a dose of 0.1 mg/Kg; value is (+/-) tranquility.
Experiment [2] concerns Monkey. Description: The compound was evaluated for the rating of psychotropic effects in rhesus monkey at a dose of 0.25 mg/Kg; value is (++) stupor, ataxia, suppression of motor activity, full ptosis.
Experiment [3] concerns Monkey. Description: The compound was evaluated for the rating of psychotropic effects in rhesus monkey at a dose of 0.5 mg/Kg; value is (++) stupor, ataxia, suppression of motor activity, full ptosis.
Experiment [4] relates to Monkey. The experiment in a line: The compound was evaluated for the rating of psychotropic effects in rhesus monkey at a dose of 0.25 mg/Kg; value is (-) No change.
In experiment [5] the test system is Monkey. Description: The compound was evaluated for the rating of psychotropic effects in rhesus monkey at a dose of 1 mg/Kg; value is (++) stupor, ataxia, suppression of motor activity, full ptosis.
Experiment [6] deals with Monkey. The experiment in a line: The compound was evaluated for the rating of psychotropic effects in rhesus monkey at a dose of 0.5 mg/Kg; value is (+) drowsiness, decreased motor activity, occasional partial ptosis, occasional head drop.
Experiment [7] has as its system Monkey. The experiment in a line: The compound was evaluated for the rating of psychotropic effects in rhesus monkey at a dose of 2 mg/Kg; value is (+) drowsiness, decreased motor activity, occasional partial ptosis, occasional head drop.
Experiment [8] has as its system Monkey. Description: The compound was evaluated for the rating of psychotropic effects in rhesus monkey at a dose of 1 mg/Kg; value is (-) No change.
Experiment [9] deals with Monkey. The experiment in a line: The compound was evaluated for the rating of psychotropic effects in rhesus monkey at a dose of 0.05 mg/Kg; value is (-) No change.
For experiment [10], the system named is Monkey. Description: The compound was evaluated for the rating of psychotropic effects in rhesus monkey at a dose of 0.1 mg/Kg; value is (++) stupor, ataxia, suppression of motor activity, full ptosis.
For experiment [11], the system named is Monkey. Description: The compound was evaluated for the rating of psychotropic effects in rhesus monkey at a dose of 5 mg/Kg; value is (-) No change.
For experiment [12], the system named is Monkey. The experiment in a line: The compound was evaluated for the rating of psychotropic effects in rhesus monkey at a dose of 5 mg/Kg; value is (+) drowsiness, decreased motor activity, occasional partial ptosis, occasional head drop.
Experiment [13] relates to Monkey. The experiment in a line: The compound was evaluated for the rating of psychotropic effects in rhesus monkey at a dose of 2 mg/Kg; value is (-) No change.
For experiment [14], the system named is Monkey. Description: The compound was evaluated for the rating of psychotropic effects in rhesus monkey at a dose of 2 mg/Kg; value is (++) stupor, ataxia, suppression of motor activity, full ptosis.

For `CCCCCc1cc(O)c2c(c1)OC(C)(C)[C@@H]1CC=C(C)CC21` (stereo not given in full), the outcome with Monkey [1] was inactive. The outcome in the experiment on Monkey [2] and with Monkey [3] was Active.
Consider `CCCCCc1cc(O)c2c(c1)OC(C)(C)[C@@H]1C[C@H](O)[C@H](C)CC21` (stereo not given in full), for which, in the experiment on Monkey [4], the result was inactive. In addition, the Activity entry in the experiment with Monkey [5] is given as “drowsiness, decreased motor activity, occasional partialptosis,occasional head drop”; in the experiment with Monkey [6], “drowsiness, decreased motor activity, occasional partialptosis,occasional head drop”.
On to `CCCCCc1cc(O)c2c(c1)OC(C)(C)[C@@H]1CC[C@H](C)CC21` (stereo not given in full), for which the Activity result in the experiment with Monkey [7] is “drowsiness, decreased motor activity, occasional partial ptosis, occasional head drop”. The result with Monkey [8] was inactive.
In the case of `CCCCCc1cc(O)c2c(c1)OC(C)(C)[C@@H]1CCC(C)=C[C@@H]21`, the result in the experiment with Monkey [2] and in the experiment on Monkey [10] was Active. The outcome in the experiment on Monkey [9] was inactive.
As for `CCCCCc1cc(O)c2c(c1)OC(C)(C)[C@@H]1CC[C@@H](C)CC21` (stereo not given in full), the Activity result is given as “+/-” in the experiment on Monkey [1] and “stupor,ataxia, suppression of motor activity, full ptosis” with Monkey [3].
In the case of `CCCCCc1cc(O)c2c(c1)OC(C)(C)[C@@H]1CC[C@H](C)C(O)C21` (stereo not given in full), the result with Monkey [8] and with Monkey [11] was inactive.
Turning to `CCCCCc1cc(O)c2c(c1)OC(C)(C)[C@@H]1CCC(C)[C@H](O)C21` (stereo not given in full), the Activity result in the experiment with Monkey [12] was “drowsiness, decreased motor activity, occasional partial ptosis, occasional head drop”. Further, the result in the experiment with Monkey [13] and with Monkey [8] was inactive.
Consider `CCCCCc1cc(O)c2c(c1)OC(C)(C)[C@@H]1C[C@H](O)C(C)CC21` (stereo not given in full), for which the result in the experiment on Monkey [13], with Monkey [8] and with Monkey [11] was inactive.
For `CCCCCc1cc(O)c2c(c1)OC(C)(C)[C@@H]1CC[C@H](C)[C@H](O)C21` (stereo not given in full), the Activity result is recorded as “drowsiness, decreased motor activity, occasional partial ptosis, occasional head drop” in the experiment on Monkey [5]; “drowsiness, decreased motor activity, occasional partial ptosis, occasional head drop” in the experiment with Monkey [14]; “drowsiness, decreased motor activity, occasional partial ptosis, occasional head drop” in the experiment on Monkey [6].
Consider `CCCCCc1cc(OC(C)=O)c2c(c1)OC(C)(C)[C@@H]1CC[C@H](COC(C)=O)CC21` (stereo not given in full), for which the result with Monkey [8] and with Monkey [11] was inactive.
For `CCCCCc1cc(O)c2c(c1)OC(C)(C)[C@@H]1CC(O)[C@H](C)CC21` (stereo not given in full), the outcome in the experiment on Monkey [8] and in the experiment with Monkey [11] was inactive.
For the compound `CCCCCc1cc(OC(C)=O)c2c(c1)OC(C)(C)[C@@H]1CCC(COC(C)=O)CC21` (stereo not given in full), the Activity entry with Monkey [5] is “drowsiness, decreased motor activity, occasional partial ptosis, occasional head drop”; in the experiment with Monkey [6], “drowsiness, decreased motor activity, occasional partial ptosis, occasional head drop”.
